Patent publication US12466809B2, “CDK2/5 degraders and uses thereof” (DANA-FARBER CANCER INSTITUTE, INC., priority 2019, dated 2025)

Tests used:
CDK2/Cyclin A = CDK2/Cyclin A (Homo sapiens (Human), UniProt P24941); experiment: Invitrogen Z'-LYTE kinase assay CDK2/Cyclin A (assay ID 315, Km app, 10-point titration); format: biochemical; conditions: Km app ATP
From the text: (§1) CDK2 and CDK5 IC50 data were attained through the use of Invitrogen™ commercial assays. The method for CDK2 (assay ID: 315, kinase|Z'-LYTE™|CDK2/Cyclin A|Km app) used a 10-point titration. The method for CDK5 (assay ID: 318, kinase|Z'-LYTE™|CDK5/p25|Km app) used a 10-point titration.

CDK5/p25 = CDK5/p25 (Homo sapiens (Human), UniProt Q00535); experiment: Invitrogen Z'-LYTE kinase assay CDK5/p25 (assay ID 318, Km app, 10-point titration); format: biochemical; conditions: CDK5/p25, Km app ATP
Chain of CDK5/p25 (Q00535 whole entry): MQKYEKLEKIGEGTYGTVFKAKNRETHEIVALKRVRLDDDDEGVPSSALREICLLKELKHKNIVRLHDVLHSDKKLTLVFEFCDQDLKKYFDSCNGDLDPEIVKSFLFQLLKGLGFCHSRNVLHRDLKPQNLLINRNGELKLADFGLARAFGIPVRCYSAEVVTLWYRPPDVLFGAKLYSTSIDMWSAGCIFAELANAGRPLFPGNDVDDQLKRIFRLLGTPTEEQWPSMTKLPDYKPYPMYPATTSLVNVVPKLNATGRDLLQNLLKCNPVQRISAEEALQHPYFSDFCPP
Chain of CDK5/p25 (Q15078 99-307 partner): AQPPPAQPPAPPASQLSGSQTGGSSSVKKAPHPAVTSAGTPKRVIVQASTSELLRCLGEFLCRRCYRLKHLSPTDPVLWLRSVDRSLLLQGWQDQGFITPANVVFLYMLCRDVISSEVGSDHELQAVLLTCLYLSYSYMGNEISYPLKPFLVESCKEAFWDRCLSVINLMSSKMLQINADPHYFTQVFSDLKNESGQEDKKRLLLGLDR
From the text: as §1

**Q.** Which results are given for `NC(=O)c1c(F)cccc1Nc1nc(NC2CCN(S(=O)(=O)CCNC(=O)CCOCCOCCOCCOCCNc3cccc4c3C(=O)N(C3CCC(=O)NC3=O)C4=O)CC2)ncc1Br` (stereo not drawn) [Compound 1, N-(2-((4-((5-bromo-4-((2-carbamoyl-3-fluorophenyl)amino)pyrimidin-2-yl)amino)piperidin-1-yl)sulfonyl)ethyl)-1-((2-(2,6-dioxopiperidin-3-yl)-1,3-dioxoisoindolin-4-yl)amino)-3,6,9,12-tetraoxapentadecan-15-amide]?
**A.** IC50 (CDK2/Cyclin A): 6.4 nM; IC50 (CDK5/p25): 8.1 nM

**Q.** What does the source list for `NC(=O)c1c(F)cccc1Nc1nc(NC2CCN(S(=O)(=O)CCNC(=O)CCOCCNc3cccc4c3C(=O)N(C3CCC(=O)NC3=O)C4=O)CC2)ncc1Br` (stereo not drawn) [Compound 2, 2-((5-bromo-2-((1-((2-(3-(2-((2-(2,6-dioxopiperidin-3-yl)-1,3-dioxoisoindolin-4-yl)amino)ethoxy)propanamido)ethyl)sulfonyl)piperidin-4-yl)amino)pyrimidin-4-yl)amino)-6-fluorobenzamide]?
**A.** IC50 (CDK2/Cyclin A): 5.1 nM; IC50 (CDK5/p25): 3.8 nM

**Q.** What does the source list for `NC(=O)c1c(F)cccc1Nc1nc(NC2CCN(S(=O)(=O)CCNC(=O)CCOCCOCCOc3cccc4c3C(=O)N(C3CCC(=O)NC3=O)C4=O)CC2)ncc1Br` (stereo not drawn) [Compound 3, 2-((5-bromo-2-((1-((2-(3-(2-(2-((2-(2,6-dioxopiperidin-3-yl)-1,3-dioxoisoindolin-4-yl)oxy)ethoxy)ethoxy)propanamido)ethyl)sulfonyl)piperidin-4-yl)amino)pyrimidin-4-yl)amino)-6-fluorobenzamide]?
**A.** IC50 (CDK2/Cyclin A): 4.9 nM; IC50 (CDK5/p25): 4.8 nM

**Q.** How did the IC50 (CDK2/Cyclin A) turn out when `NC(=O)c1c(F)cccc1Nc1nc(NC2CCN(S(=O)(=O)CCNC(=O)CCOCCOCCOCCOCCOCCOCCOCCOCCNc3cccc4c3C(=O)N(C3CCC(=O)NC3=O)C4=O)CC2)ncc1Br` (stereo not drawn) [Compound 4, N-(2-((4-((5-bromo-4-((2-carbamoyl-3-fluorophenyl)amino)pyrimidin-2-yl)amino)piperidin-1-yl)sulfonyl)ethyl)-1-((2-(2,6-dioxopiperidin-3-yl)-1,3-dioxoisoindolin-4-yl)amino)-3,6,9,12,15,18,21,24-octaoxaheptacosan-27-amide] was run?
**A.** 7.3 nM

**Q.** What about the IC50 (CDK5/p25) of the same compound?
**A.** 8.4 nM

**Q.** `NC(=O)c1c(F)cccc1Nc1nc(NC2CCN(S(=O)(=O)CCNC(=O)CCCCCCCOc3cccc4c3C(=O)N(C3CCC(=O)NC3=O)C4=O)CC2)ncc1Br` (stereo not drawn) [Compound 6, 2-((5-bromo-2-((1-((2-(8-((2-(2,6-dioxopiperidin-3-yl)-1,3-dioxoisoindolin-4-yl)oxy)octanamido)ethyl)sulfonyl)piperidin-4-yl)amino)pyrimidin-4-yl)amino)-6-fluorobenzamide] was tested. Which IC50 (CDK2/Cyclin A) did it give?
**A.** 17.1 nM

**Q.** What about the IC50 (CDK5/p25) of the same compound?
**A.** 11.8 nM

**Q.** Which results are given for `NC(=O)c1c(F)cccc1Nc1nc(NC2CCN(S(=O)(=O)CCNC(=O)CCCCCOc3cccc4c3C(=O)N(C3CCC(=O)NC3=O)C4=O)CC2)ncc1Br` (stereo not drawn) [Compound 7, 2-((5-bromo-2-((1-((2-(6-((2-(2,6-dioxopiperidin-3-yl)-1,3-dioxoisoindolin-4-yl)oxy)hexanamido)ethyl)sulfonyl)piperidin-4-yl)amino)pyrimidin-4-yl)amino)-6-fluorobenzamide]?
**A.** IC50 (CDK2/Cyclin A): 20.5 nM; IC50 (CDK5/p25): 13.7 nM

**Q.** What does the source list for `NC(=O)c1c(F)cccc1Nc1nc(N[C@@H]2CCCN(S(=O)(=O)CCNC(=O)CCCCCCCCOc3cccc4c3C(=O)N(C3CCC(=O)NC3=O)C4=O)C2)ncc1Br` (stereo partly drawn) [Compound 8, 2-((5-bromo-2-(((3R)-1-((2-(9-((2-(2,6-dioxopiperidin-3-yl)-1,3-dioxoisoindolin-4-yl)oxy)nonanamido)ethyl)sulfonyl)piperidin-3-yl)amino)pyrimidin-4-yl)amino)-6-fluorobenzamide]?
**A.** IC50 (CDK2/Cyclin A): 347 nM; IC50 (CDK5/p25): 241 nM

**Q.** Which IC50 (CDK2/Cyclin A) does the source give for `Cc1ncsc1-c1ccc([C@H](C)NC(=O)[C@@H]2C[C@@H](O)CN2C(=O)[C@@H](NC(=O)CCOCCOCCOCCC(=O)NCCS(=O)(=O)N2CCC(Nc3ncc(Br)c(Nc4cccc(F)c4C(N)=O)n3)CC2)C(C)(C)C)cc1` [Compound 9, (2S,4R)-1-((S)-19-((4-((5-bromo-4-((2-carbamoyl-3-fluorophenyl)amino)pyrimidin-2-yl)amino)piperidin-1-yl)sulfonyl)-2-(tert-butyl)-4,16-dioxo-7,10,13-trioxa-3,17-diazanonadecanoyl)-4-hydroxy-N—((S)-1-(4-(4-methylthiazol-5-yl)phenyl)ethyl)pyrrolidine-2-carboxamide] here?
**A.** 7.5 nM

**Q.** What about the IC50 (CDK5/p25) of the same compound?
**A.** 4.1 nM

**Q.** What does the source list for `Cc1ncsc1-c1ccc([C@H](C)NC(=O)[C@@H]2C[C@@H](O)CN2C(=O)[C@@H](NC(=O)CCCCC(=O)NCCS(=O)(=O)N2CCC(Nc3ncc(Br)c(Nc4cccc(F)c4C(N)=O)n3)CC2)C(C)(C)C)cc1` [Compound 10, N^1-(2-((4-((5-bromo-4-((2-carbamoyl-3-fluorophenyl)amino)pyrimidin-2-yl)amino)piperidin-1-yl)sulfonyl)ethyl)-N^6—((S)-1-((2S,4R)-4-hydroxy-2-(((S)-1-(4-(4-methylthiazol-5-yl)phenyl)ethyl)carbamoyl)pyrrolidin-1-yl)-3,3-dimethyl-1-oxobutan-2-yl)adipamide]?
**A.** IC50 (CDK2/Cyclin A): 9.1 nM; IC50 (CDK5/p25): 4.3 nM

**Q.** `Cc1ncsc1-c1ccc([C@H](C)NC(=O)[C@@H]2C[C@@H](O)CN2C(=O)[C@@H](NC(=O)CCOCCOCCC(=O)NCCS(=O)(=O)N2CCC(Nc3ncc(Br)c(Nc4cccc(F)c4C(N)=O)n3)CC2)C(C)(C)C)cc1` [Compound 11, (2S,4R)-1-((S)-16-((4-((5-bromo-4-((2-carbamoyl-3-fluorophenyl)amino)pyrimidin-2-yl)amino)piperidin-1-yl)sulfonyl)-2-(tert-butyl)-4,13-dioxo-7,10-dioxa-3,14-diazahexadecanoyl)-4-hydroxy-N—((S)-1-(4-(4-methylthiazol-5-yl)phenyl)ethyl)pyrrolidine-2-carboxamide] was tested. Which IC50 (CDK5/p25) did it give?
**A.** 4.8 nM

**Q.** How did the IC50 (CDK5/p25) turn out when `Cc1ncsc1-c1ccc([C@H](C)NC(=O)[C@@H]2C[C@@H](O)CN2C(=O)[C@@H](NC(=O)CCC(=O)NCCS(=O)(=O)N2CCC(Nc3ncc(Br)c(Nc4cccc(F)c4C(N)=O)n3)CC2)C(C)(C)C)cc1` [Compound 12, N^1-(2-((4-((5-bromo-4-((2-carbamoyl-3-fluorophenyl)amino)pyrimidin-2-yl)amino)piperidin-1-yl)sulfonyl)ethyl)-N^4—((S)-1-((2S,4R)-4-hydroxy-2-(((S)-1-(4-(4-methylthiazol-5-yl)phenyl)ethyl)carbamoyl)pyrrolidin-1-yl)-3,3-dimethyl-1-oxobutan-2-yl)succinamide] was run?
**A.** 3.7 nM

**Q.** How did the IC50 (CDK5/p25) turn out when `NC(=O)c1c(F)cccc1Nc1nc(NC2CCN(S(=O)(=O)CCNC(=O)CCC(=O)NCCCCCNc3cccc4c3C(=O)N(C3CCC(=O)NC3=O)C4=O)CC2)ncc1Br` (stereo not drawn) [Compound 13, N^1-(2-((4-((5-bromo-4-((2-carbamoyl-3-fluorophenyl)amino)pyrimidin-2-yl)amino)piperidin-1-yl)sulfonyl)ethyl)-N^4-(5-((2-(2,6-dioxopiperidin-3-yl)-1,3-dioxoisoindolin-4-yl)amino)pentyl)succinamide] was run?
**A.** 4.3 nM

**Q.** For `NC(=O)c1c(F)cccc1Nc1nc(NC2CCN(S(=O)(=O)CCNC(=O)CCCCCCCCC#Cc3cccc4c3CN(C3CCC(=O)NC3=O)C4=O)CC2)ncc1Br` (stereo not drawn) [Compound 14, 2-((5-bromo-2-((1-((2-(11-(2-(2,6-dioxopiperidin-3-yl)-1-oxoisoindolin-4-yl)undec-10-ynamido)ethyl)sulfonyl)piperidin-4-yl)amino)pyrimidin-4-yl)amino)-6-fluorobenzamide], which IC50 (CDK5/p25) is on record?
**A.** 31.2 nM

**Q.** For `NC(=O)c1c(F)cccc1Nc1nc(NC2CCN(S(=O)(=O)CCNC(=O)CCCCCCCCCCc3cccc4c3CN(C3CCC(=O)NC3=O)C4=O)CC2)ncc1Br` (stereo not drawn) [Compound 15, 2-((5-bromo-2-((1-((2-(11-(2-(2,6-dioxopiperidin-3-yl)-1-oxoisoindolin-4-yl)undecanamido)ethyl)sulfonyl)piperidin-4-yl)amino)pyrimidin-4-yl)amino)-6-fluorobenzamide], which IC50 (CDK5/p25) is on record?
**A.** 18.2 nM

**Q.** With `O=C(CCCCCCCCC#Cc1cccc2c1CN(C1CCC(=O)NC1=O)C2=O)NCCS(=O)(=O)N1CCC(Nc2ncc(Br)c(Nc3cccc4c3OCO4)n2)CC1` (stereo not drawn) [Compound 16, N-(2-((4-((4-(benzo[d][1,3]dioxol-4-ylamino)-5-bromopyrimidin-2-yl)amino)piperidin-1-yl)sulfonyl)ethyl)-11-(2-(2,6-dioxopiperidin-3-yl)-1-oxoisoindolin-4-yl)undec-10-ynamide] as the compound, how does the IC50 (CDK5/p25) read?
**A.** 4370 nM

**Q.** How did the IC50 (CDK2/Cyclin A) turn out when `O=C(CCCCCCCCOc1cccc2c1C(=O)N(C1CCC(=O)NC1=O)C2=O)NCCS(=O)(=O)N1CCC(Nc2ncc(Br)c(Nc3cccc4c3OCO4)n2)CC1` (stereo not drawn) [Compound 17, N-(2-((4-((4-(benzo[d][1,3]dioxol-4-ylamino)-5-bromopyrimidin-2-yl)amino)piperidin-1-yl)sulfonyl)ethyl)-9-((2-(2,6-dioxopiperidin-3-yl)-1,3-dioxoisoindolin-4-yl)oxy)nonanamide] was run?
**A.** 253 nM

**Q.** And the IC50 (CDK5/p25)?
**A.** 924 nM

**Q.** How did the IC50 (CDK2/Cyclin A) turn out when `O=C(CCOCCOCCOCCOCCNc1cccc2c1C(=O)N(C1CCC(=O)NC1=O)C2=O)NCCS(=O)(=O)N1CCC(Nc2ncc(Br)c(N3CCCc4ccccc43)n2)CC1` (stereo not drawn) [Compound 18, N-(2-((4-((5-bromo-4-(3,4-dihydroquinolin-1(2H)-yl)pyrimidin-2-yl)amino)piperidin-1-yl)sulfonyl)ethyl)-1-((2-(2,6-dioxopiperidin-3-yl)-1,3-dioxoisoindolin-4-yl)amino)-3,6,9,12-tetraoxapentadecan-15-amide] was run?
**A.** 23.7 nM

**Q.** What about the IC50 (CDK5/p25) of the same compound?
**A.** 27.4 nM

**Q.** For `NC(=O)c1c(F)cccc1Nc1nc(NC2CCN(S(=O)(=O)CCNC(=O)CCOCCOCCOCCOCCNc3cccc4c3C(=O)N(C3CCC(=O)NC3=O)C4=O)CC23CC3)ncc1Br` (stereo not drawn) [Compound 19, N-(2-((8-((5-bromo-4-((2-carbamoyl-3-fluorophenyl)amino)pyrimidin-2-yl)amino)-5-azaspiro[2.5]octan-5-yl)sulfonyl)ethyl)-1-((2-(2,6-dioxopiperidin-3-yl)-1,3-dioxoisoindolin-4-yl)amino)-3,6,9,12-tetraoxapentadecan-15-amide], which IC50 (CDK2/Cyclin A) is on record?
**A.** 116 nM

**Q.** What about the IC50 (CDK5/p25) of the same compound?
**A.** 71.3 nM
